Assay results reported in PubChem BioAssay (NCI).
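Interpolation was linear, between the two tested concentrations surrounding the appropriate level; five concentrations were tested over 48 hours in 96-well plates. GI50 is the concentration that inhibits growth by half. Definition used: TGI = concentration required for complete inhibition of growth.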

Columns and labels:
Test in all cases: growth of human tumour cells (NCI), 48 h
[1] = system: 786-0 renal
[2] = system: A498 renal
[3] = system: A549 NSCLC
[4] = system: ACHN renal
[5] = system: BT-549 breast
[6] = system: CAKI-1 renal
[7] = system: CCRF-CEM leukemia
[8] = system: COLO 205 colon
[9] = system: DU-145 prostate
[10] = system: EKVX NSCLC
[11] = system: HCC-2998 colon
[12] = system: HCT-116 colon
[13] = system: HCT-15 colon
[14] = system: HL-60(TB) leukemia
[15] = system: HOP-62 NSCLC
[16] = system: HOP-92 NSCLC
[17] = system: HS 578T breast
[18] = system: HT29 colon
[19] = system: IGROV1 ovarian
[20] = system: K-562 leukemia
[21] = system: KM12 colon
[22] = system: LOX IMVI melanoma
[23] = system: M14 melanoma
[24] = system: MALME-3M melanoma
[25] = system: MCF7 breast
[26] = system: MDA-MB-231 breast
[27] = system: MDA-MB-435
[28] = system: MOLT-4 leukemia
[29] = system: NCI-H226 lung
[30] = system: NCI-H23 lung
[31] = system: NCI-H460 lung
[32] = system: NCI-H522 lung
[33] = system: NCI/ADR-RES ovarian
[34] = system: OVCAR-3 ovarian
[35] = system: OVCAR-4 ovarian
[36] = system: OVCAR-5 ovarian
[37] = system: OVCAR-8 ovarian
[38] = system: PC-3 prostate
[39] = system: RPMI-8226 leukemia
[40] = system: RXF 393 renal
[41] = system: SF-268 CNS
[42] = system: SF-295 CNS
[43] = system: SF-539 CNS
[44] = system: SK-MEL-2 melanoma
[45] = system: SK-MEL-28 melanoma
[46] = system: SK-MEL-5 melanoma
[47] = system: SK-OV-3 ovarian
[48] = system: SN12C renal
[49] = system: SNB-19 CNS
[50] = system: SNB-75 CNS
[51] = system: SR leukemia
[52] = system: SW-620 colon
[53] = system: T-47D breast
[54] = system: TK-10 renal
[55] = system: U251 CNS
[56] = system: UACC-257 melanoma
[57] = system: UACC-62 melanoma
[58] = system: UO-31 renal

Q: What does the source list for `C=C(C)[C@@H]1CC[C@]2(C(=O)OC)CC[C@]3(C)[C@H](CC[C@@H]4[C@@](C)(CCc5nn[nH]n5)[C@H](C(=C)C)CC[C@]43C)[C@@H]12`?
A: GI50 [1]: 53.4 µM; TGI [1]: > 100 µM; GI50 [2]: 22.4 µM; TGI [2]: 60.7 µM; GI50 [3]: 12.4 µM; TGI [3]: 34.9 µM; GI50 [4]: 15 µM; TGI [4]: 48.1 µM; GI50 [5]: 33.2 µM; TGI [5]: > 100 µM; GI50 [6]: 10.2 µM; TGI [6]: 35 µM; GI50 [7]: 6.72 µM; TGI [7]: 37.2 µM; GI50 [8]: 19.7 µM; TGI [8]: 47.9 µM; GI50 [9]: 16 µM; TGI [9]: 32.4 µM; GI50 [10]: 19.2 µM; TGI [10]: 61 µM; GI50 [11]: 15.8 µM; TGI [11]: 30.5 µM; GI50 [12]: 26.9 µM; TGI [12]: > 100 µM; GI50 [13]: 13.2 µM; TGI [13]: 35.7 µM; GI50 [14]: 19 µM; TGI [14]: 62.3 µM; GI50 [15]: 18.7 µM; TGI [15]: 41.1 µM; GI50 [16]: 8.08 µM; TGI [16]: 22.3 µM; GI50 [17]: 19.8 µM; TGI [17]: 53.8 µM; GI50 [18]: 20.6 µM; TGI [18]: 73.3 µM; GI50 [19]: 17.4 µM; TGI [19]: 46.2 µM; GI50 [20]: 18.4 µM; TGI [20]: > 100 µM; GI50 [21]: 10.7 µM; TGI [21]: 25 µM; GI50 [22]: 16 µM; TGI [22]: 29.5 µM; GI50 [23]: 27.5 µM; TGI [23]: > 100 µM; GI50 [24]: 16.3 µM; TGI [24]: 31.7 µM; GI50 [25]: 17 µM; TGI [25]: 70.5 µM; GI50 [26]: 15.5 µM; TGI [26]: 30.8 µM; GI50 [27]: 17.6 µM; TGI [27]: 44.2 µM; GI50 [28]: 11.7 µM; TGI [28]: 40.8 µM; GI50 [29]: 15.3 µM; TGI [29]: 47.7 µM; GI50 [30]: 16.4 µM; TGI [30]: 39.4 µM; GI50 [31]: 20.5 µM; TGI [31]: 44 µM; GI50 [32]: 17.2 µM; TGI [32]: 51.5 µM; GI50 [33]: 20.8 µM; TGI [33]: 73.2 µM; GI50 [34]: 13.5 µM; TGI [34]: 27 µM; GI50 [35]: 14.7 µM; TGI [35]: 48.1 µM; GI50 [36]: 19.4 µM; TGI [36]: 35.9 µM; GI50 [37]: 28.6 µM; TGI [37]: > 100 µM; GI50 [38]: 3.46 µM; TGI [38]: 17.2 µM; GI50 [39]: 4.07 µM; TGI [39]: 29.8 µM; GI50 [40]: 15.7 µM; TGI [40]: 30.1 µM; GI50 [41]: 15.7 µM; TGI [41]: 34.9 µM; GI50 [42]: 13.6 µM; TGI [42]: 44.3 µM; GI50 [43]: 16.5 µM; TGI [43]: 30.7 µM; GI50 [44]: 16.7 µM; TGI [44]: 39.5 µM; GI50 [45]: 12.9 µM; TGI [45]: 27.8 µM; GI50 [46]: 11.4 µM; TGI [46]: 24.4 µM; GI50 [47]: 25.6 µM; TGI [47]: 82.8 µM; GI50 [48]: 14.7 µM; TGI [48]: 32.8 µM; GI50 [49]: 15.4 µM; TGI [49]: 35.7 µM; GI50 [50]: 15.9 µM; TGI [50]: 34.1 µM; GI50 [51]: 11.4 µM; TGI [51]: 49.4 µM; GI50 [52]: 19.3 µM; TGI [52]: 46 µM; GI50 [53]: 15.2 µM; TGI [53]: 84.3 µM; GI50 [54]: 30.9 µM; TGI [54]: > 100 µM; GI50 [55]: 15.4 µM; TGI [55]: 32.4 µM; GI50 [56]: 23.9 µM; TGI [56]: 79.9 µM; GI50 [57]: 5.35 µM; TGI [57]: 19.6 µM; GI50 [58]: 10.9 µM; TGI [58]: 23 µM
